The values that follow come from patent US4472404A, “8-Quinolinyl carbamates and their use as urinary tract antimicrobials” (priority 1982, dated 1984).

Common to all, as to assay type: cell-based
One experiment has as its system Candida pelliculosa. The experiment in a line: Agar-plate minimum inhibitory concentration (Example 12). As to conditions: Hansenula anomala; Candida pelliculosa; agar, 72-120 hours; read-out: Minimum Inhibitory Concentration. The method, then:
(§1) The test compound was added to molten agar as a solution (when conveniently soluble in a solvent such as dimethylformamide) or a suspension forming a mixture having a concentration of 0.05 percent (500 ppm). The mixture was stirred and poured into plates to harden. When hardened, the plates were inoculated with various bacteria and fungi. The bacteria-inoculated plates were incubated at 37° C. for 24 hours, while the fungi-inoculated plates were incubated for about 72-120 hours. Following incubation, the plates were examined for growth or inhibition of the respective organisms.
(§2) After the initial readings, compounds showing sufficient activity were re-tested at various concentrations to determine the minimum inhibitory concentration (in ppm) of the compounds of the invention against the various bacteria and fungi tested.

The subject of another experiment is Candida albicans. The experiment is described as above. As to conditions: agar, 72-120 hours, read-out: Minimum Inhibitory Concentration. On the procedure:
as §1, §2

For a further experiment, the system named is Aspergillus niger. The experiment is described as above. As to conditions: agar, 72-120 hours, read-out: Minimum Inhibitory Concentration. On the procedure:
as §1, §2

Another experiment concerns Bacillus subtilis. The description is as above. As to conditions: agar, 37° C., 24 hours, read-out: Minimum Inhibitory Concentration. The method, then: as §1, §2
The subject of another experiment is Salmonella typhosa. Described as above. As to conditions: Salmonella enterica; Salmonella typhosa; agar, 37° C., 24 hours; read-out: Minimum Inhibitory Concentration. The method, then: as §1, §2
The subject of another experiment is Streptococcus mutans. The description is as above. To be noted: agar, 37° C., 24 hours, read-out: Minimum Inhibitory Concentration. The method, then:
as §1, §2

In a further experiment the test system is Ceratocystis ips. Described as above. As to conditions: Ceratocystis ips; agar, 72-120 hours; read-out: Minimum Inhibitory Concentration. The method, then:
as §1, §2

Experiment [1] deals with Trichophyton mentagrophytes. The experiment is described as above. To be noted: agar, 72-120 hours, read-out: Minimum Inhibitory Concentration. The method, then: as §1, §2
Experiment [2] deals with Staphylococcus aureus ATCC 25923. Put plainly: Minimum inhibitory concentration, urinary tract organisms (Example 13). As to conditions: ATCC25923, Sa 25923, read-out: Minimum Inhibitory Concentration. The method, then: as §1, §2
(§3) Following a procedure substantially the same as that described in Example 12, the minimum inhibitory concentration for the compounds described herein was determined for various organisms representative of those commonly associated with urinary tract infections.
(§4) The organisms used in this procedure and the abbreviations designated in Table 3 are as follows: […]

Experiment [3] relates to Klebsiella pneumoniae M-1. Described as above. To be noted: M1, Kp M-1, read-out: Minimum Inhibitory Concentration. The method, then:
as §1, §2, §3, §4

Experiment [4] concerns Enterobacter aerogenes ATCC 13048. Described as above. As to conditions: Klebsiella aerogenes, ATCC13048; Ea 13048; read-out: Minimum Inhibitory Concentration. The method, then: as §1, §2, §3, §4
The test system of experiment [5] is Klebsiella pneumoniae ATCC 23357. The description is as above. To be noted: ATCC23357, Kp 23357, read-out: Minimum Inhibitory Concentration. The method, then: as §1, §2, §3, §4
In experiment [6] the test system is Pseudomonas aeruginosa PRD-10. The experiment is described as above. To be noted: PRD10, Pa PRD-10, read-out: Minimum Inhibitory Concentration. The method, then:
as §1, §2, §3, §4

Experiment [7] deals with Pseudomonas aeruginosa ATCC 27853. The description is as above. To be noted: ATCC27853, Pa 27853, read-out: Minimum Inhibitory Concentration. On the procedure:
as §1, §2, §3, §4

Experiment [8] concerns Escherichia coli ATCC 11229. The description is as above. As to conditions: ATCC11229, Ec 11229, read-out: Minimum Inhibitory Concentration. On the procedure:
as §1, §2, §3, §4

Experiment [9] concerns Escherichia coli ATCC 9723. Described as above. As to conditions: ATCC9723, Ec 9723, read-out: Minimum Inhibitory Concentration. On the procedure: as §1, §2, §3, §4
In experiment [10] the test system is Pseudomonas aeruginosa ATCC 7700. The description is as above. As to conditions: ATCC7700, Pa 7700, read-out: Minimum Inhibitory Concentration. On the procedure:
as §1, §2, §3, §4

The subject of a further experiment is Proteus mirabilis 470/1. The description is as above. As to conditions: Pm 470/1, read-out: Minimum Inhibitory Concentration. The method, then:
as §1, §2, §3, §4

Experiment [11] has as its system Escherichia coli ATCC 4157. The experiment is described as above. As to conditions: ATCC4157, Ec 4157, read-out: Minimum Inhibitory Concentration. On the procedure: as §1, §2, §3, §4
The test system of experiment [12] is Klebsiella pneumoniae M-2. Described as above. To be noted: M2, Kp M-2, read-out: Minimum Inhibitory Concentration. On the procedure: as §1, §2, §3, §4
Experiment [13] deals with Pseudomonas aeruginosa ATCC 10145. The experiment is described as above. As to conditions: ATCC10145, Pa 10145, read-out: Minimum Inhibitory Concentration. On the procedure:
as §1, §2, §3, §4

Experiment [14] relates to Klebsiella pneumoniae M-6. The experiment is described as above. As to conditions: M6, Kp M-6, read-out: Minimum Inhibitory Concentration. On the procedure:
as §1, §2, §3, §4

Experiment [15] deals with Escherichia coli ATCC 25922. Described as above. As to conditions: ATCC25922, Ec 25922, read-out: Minimum Inhibitory Concentration. The method, then:
as §1, §2, §3, §4

The next experiment concerns Serratia marcescens M-1. Described as above. To be noted: M1, Sr M-1, read-out: Minimum Inhibitory Concentration. The method, then:
as §1, §2, §3, §4

Converted amounts (≈) assume the structure as drawn.

For `CCOC(=O)CNC(=O)Oc1ccc([N+](=O)[O-])c2cccnc12` [Example 5, Ethyl N-(((5-nitro-8-quinolinyl)oxy)carbonyl)glycinate], the MIC in the experiment on Candida pelliculosa was 50 µg/mL (≈ 157 µM); in the experiment with Candida albicans, 50 µg/mL (≈ 157 µM); with Aspergillus niger, 50 µg/mL (≈ 157 µM); with Bacillus subtilis, 5 µg/mL (≈ 15.7 µM); in the experiment on Salmonella typhosa, 5 µg/mL (≈ 15.7 µM); in the experiment with Streptococcus mutans it was > 500 µg/mL. The MIC in the experiment on Ceratocystis ips was 100 µg/mL (≈ 313 µM); in [1], 50 µg/mL (≈ 157 µM); in experiment [2] it was 25 µg/mL (≈ 78.3 µM); in experiment [3] it was 25 µg/mL (≈ 78.3 µM); in experiment [4], 25 µg/mL (≈ 78.3 µM); in experiment [5], 10 µg/mL (≈ 31.3 µM). Moreover, the MIC came out at 50 µg/mL (≈ 157 µM) in experiment [6]; 75 µg/mL (≈ 235 µM) in experiment [7]; 25 µg/mL (≈ 78.3 µM) in experiment [8]; 25 µg/mL (≈ 78.3 µM) in experiment [9]; 100 µg/mL (≈ 313 µM) in [10]; 10 µg/mL (≈ 31.3 µM) with Proteus mirabilis 470/1. The MIC in experiment [11] was 25 µg/mL (≈ 78.3 µM); in experiment [12], 25 µg/mL (≈ 78.3 µM); in experiment [13], 25 µg/mL (≈ 78.3 µM); in [14] it was 25 µg/mL (≈ 78.3 µM); in experiment [15], 10 µg/mL (≈ 31.3 µM); in the experiment with Serratia marcescens M-1, 50 µg/mL (≈ 157 µM).
`CCOC(=O)CNC(=O)Oc1ccc(Cl)c2cccnc12.CS(=O)(=O)O` [Example 7, Ethyl N-(((5-chloro-8quinolinyl)oxy)carbonyl)glycinate methanesulfonic acid salt]: the MIC in the experiment with Candida pelliculosa worked out at 50 µg/mL; in the experiment on Candida albicans, 50 µg/mL; in the experiment with Aspergillus niger, 50 µg/mL; in the experiment on Bacillus subtilis, 5 µg/mL; with Salmonella typhosa, 10 µg/mL; in the experiment on Streptococcus mutans, 500 µg/mL. Besides, the MIC in the experiment with Ceratocystis ips was 50 µg/mL; in experiment [1], 10 µg/mL; in [2], < 5 µg/mL; in experiment [3] it was 75 µg/mL; in [4], 75 µg/mL; in [5], 75 µg/mL. Besides, the MIC came out at 250 µg/mL in [6]; 250 µg/mL in experiment [7]; 50 µg/mL in [8]; 50 µg/mL in [9]; 250 µg/mL in experiment [10]; 75 µg/mL in the experiment with Proteus mirabilis 470/1. Moreover, the MIC in experiment [11] amounted to 50 µg/mL; in experiment [12], 75 µg/mL; in [13] it was 75 µg/mL; in experiment [14] it was 50 µg/mL; in experiment [15], 25 µg/mL; with Serratia marcescens M-1, 100 µg/mL.
